pEC50: −log10 of the molar value.
Experiments:
[1] = system: A375; type: cell-based, human; settings: 24 h
Protocol: (§1) Cell viability assays shown in FIGS. 34-52 were performed according to a similar protocol. Cells were split at optimal cell density a day prior to the initiation of the study. The next day, cells were washed twice in serum-free Opti-MEM media and 4000 cells/well were added to each well in a final volume of […] Opti-MEM. For serum-free experiments, macrocycles were diluted from 2 mM stocks (100% DMSO) in sterile water to prepare 400 μM working solutions. A 40 μM solution was then generated by ten-fold dilution in assay buffer. The macrocycle and controls were then serially diluted two-fold in assay buffer in dosing plates to provide concentrations between 1.2 and 40 μM, respectively. For experiments in 2% human serum, macrocycles were diluted from 10 mM stocks (100% DMSO) in sterile water to prepare 1 mM working solutions. A 100 μM solution was generated by ten-fold dilution in assay buffer. The macrocycles and controls were then serially diluted two-fold in assay buffer in dosing plates to provide concentrations between 3 and 100 μM, respectively. 50 μl of each dilution was then added to the appropriate wells of the test plate to achieve final concentrations of the macrocycle between 0.6 to 20 μM (for serum free experiment) or 1.5 to 50 μM (for 2% serum experiment), respectively. Controls included wells without macrocycles containing the same concentration of DMSO as the macrocycle-containing wells, wells containing 0.1% Triton X-100, and wells containing no cells. Plates were incubated for 24 hours at 37° C. in a humidified 5% CO2 atmosphere. At the end of a 24 hr incubation period, a CellTiter-Glo Luminescent Cell Viability Assay was performed according to manufacturer's instructions (Promega, catalog #G7571) and the luminescence was measured using a BIO-TEK synergy HT Plate reader. Values were plotted as percent viable, i.e. as a percentage of the negative control value (derived from cells exposed to DMSO only). All assays were performed in duplicate.
(§2) The following tables summarize the EC50 values (μM) observed with peptidomimetic macrocycles of the invention in various cell lines: […]

[2] = system: DHL-6; type: cell-based, human; settings: 24 h
Protocol: as §1, §2

[3] = system: Jurkat; type: cell-based, human; settings: 24 h
Protocol: as §1, §2

[4] = system: MDA-MB231-Met; type: cell-based, human; settings: 24 h
Protocol: as §1, §2

[5] = system: MM1S; type: cell-based, human; settings: 24 h
Protocol: as §1, §2

[6] = system: Molt-4; type: cell-based, human; settings: 24 h
Protocol: as §1, §2

[7] = system: NCI-H82 (SCLC-MCL1+); type: cell-based, human; settings: 24 h
Protocol: as §1, §2

[8] = system: OVCAR8; type: cell-based, human; settings: 24 h
Protocol: as §1, §2

[9] = system: PC3; type: cell-based, human; settings: 24 h
Protocol: as §1, §2

[10] = system: RS4;11; type: cell-based, human; settings: 24 h
Protocol: as §1, §2

[11] = system: Raji; type: cell-based, human; settings: 24 h
Protocol: as §1, §2

[12] = system: SEMK2; type: cell-based, human; settings: 24 h
Protocol: as §1, §2

[13] = molecular target: T1, BAX (Homo sapiens, UniProt Q07812); assay: Immunoprecipitation in MM1S cell lysates; type: binding; settings: multiple myeloma (MM1S) cell lysates
T1 construct: endogenous in cells; host or cells: MM1S multiple myeloma cells (lysate)
T1 sequence (Q07812 whole entry): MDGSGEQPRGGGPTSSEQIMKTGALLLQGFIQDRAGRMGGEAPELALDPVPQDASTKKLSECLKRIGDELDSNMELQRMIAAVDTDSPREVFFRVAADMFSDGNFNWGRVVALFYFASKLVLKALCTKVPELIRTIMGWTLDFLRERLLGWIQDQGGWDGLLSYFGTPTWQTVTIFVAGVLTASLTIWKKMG
Protocol: It is possible to measure binding of peptides or peptidomimetic macrocycles to their natural acceptors in cell lysates or intact cells by immunoprecipitation and pull-down experiments. For example, intact cells are incubated with fluoresceinated (FITC-labeled) or biotinylated compounds for 4 hrs in the absence of serum, followed by serum replacement and further incubation that ranges from 4-18 hrs. Alternatively, cells can be incubated for the duration of the experiment in Opti-MEM (Invitrogen). Cells are then pelleted and incubated in lysis buffer (50 mM Tris [pH 7.6], 150 mM NaCl, 1% CHAPS and protease inhibitor cocktail) for 10 minutes at 4° C. 1% NP-40 or Triton X-100 may be used instead of CHAPS. Extracts are centrifuged at 14,000 rpm for 15 minutes and supernatants collected and incubated with 10 μl goat anti-FITC antibody or streptavidin-coated beads for 2 hrs, rotating at 4° C. followed by further 2 hrs incubation at 4° C. with protein A/G Sepharose (50 μl of 50% bead slurry).). No secondary step is necessary if using streptavidin beads to pull down biotinylated compounds. […]

[14] = molecular target: Bcl-xL (Homo sapiens, UniProt Q07817); assay: Protein-ligand binding experiment (SEC-LC-MS); settings: 1 μM macrocycle plus 5 μM Bcl-xL, 60 min room temperature
Bcl-xL, sequence (Q07817 whole entry): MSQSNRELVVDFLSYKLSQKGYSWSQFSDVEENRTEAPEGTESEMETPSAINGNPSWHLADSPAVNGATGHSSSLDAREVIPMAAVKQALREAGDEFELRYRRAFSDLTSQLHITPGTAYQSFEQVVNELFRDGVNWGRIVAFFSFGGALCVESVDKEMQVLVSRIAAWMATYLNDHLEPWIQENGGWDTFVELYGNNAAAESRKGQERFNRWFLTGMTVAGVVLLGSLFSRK
Protocol: Protein-ligand binding experiments were conducted according to the following representative procedure outlined for a system-wide control experiment using 1 μM SP-4 plus 5 μM Bcl-xL. A 1 μl DMSO aliquot of a 40 μM stock solution of peptidomimetic macrocycle was dissolved in 19 μl of PBS (Phosphate-buffered saline: 50 mM, pH 7.5 Phosphate buffer containing 150 mM NaCl). The resulting solution was mixed by repeated pipetting and clarified by centrifugation at 10 000 g for 10 min. To a 4 μl aliquot of the resulting supernatant was added 4 μl of 10 μM BCL-xL in PBS. Each 8.0 μl experimental sample thus contained 40 pmol (1.5 μg) of protein at 5.0 μM concentration in PBS plus 1 μM peptidomimetic macrocycle and 2.5% DMSO. Duplicate samples thus prepared for each concentration point were incubated for 60 min at room temperature, and then chilled to 4° C. prior to size-exclusion chromatography-LC-MS analysis of 5.0 μL injections. Samples containing a target protein, protein-ligand complexes, and unbound compounds were injected onto an SEC column, where the complexes were separated from non-binding component by a rapid SEC step. The SEC column eluate was monitored using UV detectors to confirm that the early-eluting protein fraction, which elutes in the void volume of the SEC column, was well resolved from unbound components that are retained on the column. […]

For `CC[C@H](C)[C@H](NC(C)=O)C(=O)N[C@@H](Cc1c[nH]c2ccccc12)C(=O)N[C@H](C(=O)N[C@@H](C)C(=O)N[C@@H](CCC(N)=O)C(=O)N[C@@H](CCC(=O)O)C(=O)N[C@@H](CC(C)C)C(=O)N[C@@H](CCCNC(=N)N)C(=O)NC1(C)CCCC=CCCCC(C)(C(=O)N[C@@H](Cc2ccccc2)C(=O)N[C@@H](CC(N)=O)C(=O)N[C@@H](C)C(=O)N[C@@H](Cc2ccc(O)cc2)C(=O)N[C@@H](Cc2ccc(O)cc2)C(=O)N[C@@H](C)C(=O)N[C@@H](CCCNC(=N)N)C(=O)N[C@@H](CCCNC(=N)N)C(N)=O)NC(=O)[C@H](CC(=O)O)NC(=O)CNC(=O)[C@H]([C@@H](C)CC)NC1=O)[C@@H](C)CC` (some centres unmarked) [SP-4], the pEC50 [1] was 5.10, the pEC50 [2] was 5.42 and the pEC50 [3] was 5.80. The pEC50 [4] was 5.07, the pEC50 [5] was 5.31 and the pEC50 [6] was 5.66. For the same compound, the pEC50 [7] was 5.31, the pEC50 [8] was 4.70 and the pEC50 [9] was 5.30. It also gave a pEC50 [10] of 5.00, a pEC50 [11] of 5.05 and a pEC50 [12] of 5.40. For the same compound, the “binding to pro-apoptotic target protein BAX” value [13] was “sequence-specific and structure-specific binding” and the “detection of protein-ligand complex with Bcl-xL” value [14] was “detection of the protein-ligand complex”.
